Values of other authors in patent publication US20210315250A1, “COMBINATION BROAD-SPECTRUM ANTIVIRAL NATURAL EXTRACT SUPPLEMENTS” (priority 2020, published 2021).

Legend:
[1] = test system: HSV-1
[2] = test system: docking site for SARS-CoV-2
[3] = test system: HIV
[4] = test system: SVS
[5] = target: SARS-CoV 3CL (Severe acute respiratory syndrome coronavirus, UniProt P0C6X7)
[6] = test system: influenza
[7] = target: ACE2 receptor (Homo sapiens, UniProt Q9BYF1)
[8] = target: viral S protein (Severe acute respiratory syndrome coronavirus 2, UniProt P0DTC2)

ACE2 receptor, sequence (Q9BYF1 18-805): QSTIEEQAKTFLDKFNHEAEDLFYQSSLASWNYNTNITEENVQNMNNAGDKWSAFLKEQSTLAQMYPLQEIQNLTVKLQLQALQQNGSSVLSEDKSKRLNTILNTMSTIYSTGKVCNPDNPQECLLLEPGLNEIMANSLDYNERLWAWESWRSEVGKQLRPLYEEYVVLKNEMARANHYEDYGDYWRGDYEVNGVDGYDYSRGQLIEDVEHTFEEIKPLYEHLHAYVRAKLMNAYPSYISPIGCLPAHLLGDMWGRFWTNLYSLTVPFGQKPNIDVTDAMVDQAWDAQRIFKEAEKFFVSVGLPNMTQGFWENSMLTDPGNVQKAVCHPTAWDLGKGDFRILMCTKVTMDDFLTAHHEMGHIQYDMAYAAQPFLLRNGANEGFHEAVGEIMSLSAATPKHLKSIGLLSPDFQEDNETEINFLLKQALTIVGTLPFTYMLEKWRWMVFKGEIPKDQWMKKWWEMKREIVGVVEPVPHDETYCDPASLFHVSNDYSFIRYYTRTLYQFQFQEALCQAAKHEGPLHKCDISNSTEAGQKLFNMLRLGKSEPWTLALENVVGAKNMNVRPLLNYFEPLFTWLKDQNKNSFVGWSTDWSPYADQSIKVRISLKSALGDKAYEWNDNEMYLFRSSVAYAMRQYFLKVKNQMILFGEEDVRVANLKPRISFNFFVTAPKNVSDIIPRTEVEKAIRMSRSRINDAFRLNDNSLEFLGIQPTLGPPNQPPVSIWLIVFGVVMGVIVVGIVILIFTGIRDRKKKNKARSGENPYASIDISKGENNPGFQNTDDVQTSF

## C/C=C/c1ccc(OC)cc1 [Trans-anethole]
[1]
  inhibition of HSV-1: inhibit

## O=c1c(O)c(-c2cc(O)c(O)c(O)c2)oc2cc(O)cc(O)c12 [Myricetin]
[2]
  inhibition of the docking site for SARS-CoV-2: inhibit

## CCCCCCCCCCCCCC(=O)O [myristic acid]
[3]
  inhibition of HIV: inhibit
[4]
  inhibition of SVS: inhibit

## O=c1cc(-c2ccc(O)c(O)c2)oc2cc(O)cc(O)c12 [Luteolin]
[5]
  inhibition of the docking site for SARS-CoV 3CL: inhibit

## CC(=O)C=O [Methylglyoxal]
[6]
  inhibition of viruses, in particular influenza: inhibit

## O=c1c(O)c(-c2ccc(O)cc2)oc2c(O)c(O)cc(O)c12 [herbacetin]
[5]
  binding to SARS-CoV 3CL: bind

## caryophyllene
[1]
  inhibition of HSV-1: inhibit

## C[C@@H]1O[C@@H](O[C@H]2[C@H](Oc3cc(O)c4c(=O)cc(-c5ccc(O)cc5)oc4c3)O[C@H](CO)[C@@H](O)[C@@H]2O)[C@H](O)[C@H](O)[C@H]1O [rhoifolin]
[5]
  binding to SARS-CoV 3CL: bind

## COc1cc(/C=C/C(=O)CC(=O)/C=C/c2ccc(O)c(OC)c2)ccc1O [Curcumin]
[7]
  interaction with ACE2 receptor docking site: interact
[8]
  interaction with viral S protein docking site: interact

## O=C1OC[C@H](Cc2ccc3c(c2)OCO3)/C1=C\c1ccc2c(c1)OCO2 [Savinin]
[5]
  inhibition of the docking site for SARS-CoV 3CL: inhibit

## COc1ccc(-c2cc(=O)c3c(O)c(OC)c(O[C@@H]4O[C@H](CO[C@@H]5O[C@@H](C)[C@H](O)[C@@H](O)[C@H]5O)[C@@H](O)[C@H](O)[C@H]4O)cc3o2)cc1 [pectolinarin]
[5]
  binding to SARS-CoV 3CL: bind
